This passage reports MIC and IC50 results from ChEMBL document CHEMBL5335828, “Sacculatane Diterpenoids from the Liverwort Plagiochila nitens Collected in China” (J Nat Prod, 2024).

In brackets after ≈: the same amount, converted by molar mass. Some results are limits rather than exact numbers.

The test system of one assay is Candida albicans. The assay is described as follows: Antifungal activity against Candida albicans DSY654 harboring CDR1-CDR2 double mutant assessed as inhibition of fungal growth incubated for 24 hrs by alamar blue assay. The assay is classed as functional.
Conditions: not given
In general terms: Alamar Blue is a resazurin reagent that responds to reducing activity.
Take `COC(=O)C1=CO[C@H]2OC(=O)[C@H]3[C@H]2[C@H]1[C@@H]1[C@H](C[C@H]3OC(C)=O)C1(C)C`: the MIC (in general, the lowest concentration that inhibits growth of the organism) came to 16 µg/mL (≈ 45.7 µM).

Test system in the next assay: not listed separately
The experiment in a line: Cytotoxicity against mouse Hepa1c1c7 cells incubated for 24 hrs by MTT assay. It is filed as functional, cell-based. Particulars: Hepa-1c1c7, 24 h.
Consider `C=C1CC[C@H]2[C@](C)(CC[C@H](OC(C)=O)C(C)(C)O)[C@@H](OC(C)=O)CC[C@]2(CO)[C@H]1CO`, for which the IC50 (in general, the point on the concentration scale where inhibition reaches its midpoint) is > 50 µM.
As for `C=C1CC[C@H]2[C@](C)(CC[C@H](O)C(C)(C)O)CCC[C@]2(COC(C)=O)[C@H]1CO`, the IC50 is > 50 µM.
`C=C1CC[C@H]2[C@](C)(CC[C@H](O)C(C)(C)O)CCC[C@]2(CO)[C@H]1CO`: the IC50 was > 50 µM.
Regarding `COC(=O)C1=CO[C@H]2OC(=O)[C@H]3[C@H]2[C@H]1[C@@H]1[C@H](C[C@H]3OC(C)=O)C1(C)C`, the IC50 is > 50 µM.
Take `C=C1CC[C@H]2[C@](C)(CC[C@H](O)C(C)(C)O)[C@@H](OC(C)=O)CC[C@]2(CO)[C@H]1CO`: the IC50 is > 50 µM.
For `C=C1C[C@H](O)[C@@H]2C3(CCC[C@@]2(C)CCC=C(C)C)[C@H](O)OC[C@@H]13` (some centres undefined), the IC50 is > 50 µM.
Regarding `CC(=O)O[C@H]1CC[C@@]23CO[C@](C)(CC[C@H]2[C@]1(C)CC[C@H](O)C(C)(C)O)[C@@H]3CO`, the IC50 is > 50 µM.
Turning to `C=C1CC[C@H]2[C@](C)(CC[C@H](OC(C)=O)C(C)(C)O)CCC[C@]2(CO)[C@H]1CO`, the IC50 is > 50 µM.
